Assay results as given in PubChem BioAssay (NCI).
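Protocol summary: plate cells (96-well), add compound at 5 concentrations, incubate 48 h, interpolate endpoints linearly. TGI: total growth inhibition.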

Assays:
Test in all cases: inhibition of tumour cell growth, NCI panel, 48 h
HOP-62 NSCLC = system: HOP-62 NSCLC
U251 CNS = system: U251 CNS
NCI-H522 lung = system: NCI-H522 lung
NCI-H460 lung = system: NCI-H460 lung
UACC-257 melanoma = system: UACC-257 melanoma
PC-3 prostate = system: PC-3 prostate
SNB-75 CNS = system: SNB-75 CNS
ACHN renal = system: ACHN renal
OVCAR-3 ovarian = system: OVCAR-3 ovarian
MDA-N = system: MDA-N
MALME-3M melanoma = system: MALME-3M melanoma
T-47D breast = system: T-47D breast
SK-OV-3 ovarian = system: SK-OV-3 ovarian
RPMI-8226 leukemia = system: RPMI-8226 leukemia
A498 renal = system: A498 renal
UO-31 renal = system: UO-31 renal
BT-549 breast = system: BT-549 breast
A549 NSCLC = system: A549 NSCLC
SK-MEL-2 melanoma = system: SK-MEL-2 melanoma
SR leukemia = system: SR leukemia
SW-620 colon = system: SW-620 colon
NCI-H226 lung = system: NCI-H226 lung
EKVX NSCLC = system: EKVX NSCLC
HCT-15 colon = system: HCT-15 colon
MDA-MB-435 = system: MDA-MB-435
KM12 colon = system: KM12 colon
SK-MEL-28 melanoma = system: SK-MEL-28 melanoma
SN12C renal = system: SN12C renal
M14 melanoma = system: M14 melanoma
NCI/ADR-RES ovarian = system: NCI/ADR-RES ovarian
IGROV1 ovarian = system: IGROV1 ovarian
786-0 renal = system: 786-0 renal
NCI-H23 lung = system: NCI-H23 lung
CAKI-1 renal = system: CAKI-1 renal
TK-10 renal = system: TK-10 renal
LOX IMVI melanoma = system: LOX IMVI melanoma
HCT-116 colon = system: HCT-116 colon
RXF 393 renal = system: RXF 393 renal
MDA-MB-231 breast = system: MDA-MB-231 breast
COLO 205 colon = system: COLO 205 colon
MCF7 breast = system: MCF7 breast
HOP-92 NSCLC = system: HOP-92 NSCLC
SF-295 CNS = system: SF-295 CNS
UACC-62 melanoma = system: UACC-62 melanoma
SF-539 CNS = system: SF-539 CNS
HS 578T breast = system: HS 578T breast
SNB-19 CNS = system: SNB-19 CNS
OVCAR-5 ovarian = system: OVCAR-5 ovarian
SF-268 CNS = system: SF-268 CNS
K-562 leukemia = system: K-562 leukemia
OVCAR-8 ovarian = system: OVCAR-8 ovarian
SK-MEL-5 melanoma = system: SK-MEL-5 melanoma
OVCAR-4 ovarian = system: OVCAR-4 ovarian
DU-145 prostate = system: DU-145 prostate
HT29 colon = system: HT29 colon
MOLT-4 leukemia = system: MOLT-4 leukemia
HL-60(TB) leukemia = system: HL-60(TB) leukemia
HCC-2998 colon = system: HCC-2998 colon
CCRF-CEM leukemia = system: CCRF-CEM leukemia

Measured: TGI

c1cc2c(cc1C(N1CCNCC1)N1CCNCC1)OCO2
5.6 µM: K-562 leukemia
> 100 µM: HOP-62 NSCLC | U251 CNS | NCI-H522 lung | NCI-H460 lung | UACC-257 melanoma | PC-3 prostate | SNB-75 CNS | ACHN renal | OVCAR-3 ovarian | MDA-N | MALME-3M melanoma | T-47D breast | SK-OV-3 ovarian | RPMI-8226 leukemia | A498 renal | UO-31 renal | BT-549 breast | A549 NSCLC | SK-MEL-2 melanoma | SR leukemia | SW-620 colon | NCI-H226 lung | EKVX NSCLC | HCT-15 colon | MDA-MB-435 | KM12 colon | SK-MEL-28 melanoma | SN12C renal | M14 melanoma | NCI/ADR-RES ovarian | IGROV1 ovarian | 786-0 renal | NCI-H23 lung | CAKI-1 renal | TK-10 renal | LOX IMVI melanoma | HCT-116 colon | RXF 393 renal | MDA-MB-231 breast | COLO 205 colon | MCF7 breast | HOP-92 NSCLC | SF-295 CNS | UACC-62 melanoma | SF-539 CNS | HS 578T breast | SNB-19 CNS | OVCAR-5 ovarian | SF-268 CNS | OVCAR-8 ovarian | SK-MEL-5 melanoma | OVCAR-4 ovarian | DU-145 prostate | HT29 colon

N#CN=C1c2ccccc2C(=NC#N)c2cc(CO)ccc21
80.7 µM: K-562 leukemia
80.3 µM: MDA-MB-435
> 100 µM: HOP-62 NSCLC | U251 CNS | NCI-H522 lung | NCI-H460 lung | UACC-257 melanoma | PC-3 prostate | OVCAR-3 ovarian | MDA-N | UO-31 renal | A549 NSCLC | SK-MEL-2 melanoma | SW-620 colon | NCI-H226 lung | EKVX NSCLC | HCT-15 colon | KM12 colon | SK-MEL-28 melanoma | SN12C renal | M14 melanoma | 786-0 renal | NCI-H23 lung | CAKI-1 renal | TK-10 renal | LOX IMVI melanoma | HCT-116 colon | MDA-MB-231 breast | SF-295 CNS | SF-539 CNS | HS 578T breast | SNB-19 CNS | OVCAR-5 ovarian | SF-268 CNS | OVCAR-8 ovarian | SK-MEL-5 melanoma | OVCAR-4 ovarian | HT29 colon
83.1 µM: MCF7 breast
60.7 µM: SNB-75 CNS | HL-60(TB) leukemia
89.2 µM: T-47D breast
83.6 µM: NCI/ADR-RES ovarian
81.5 µM: RXF 393 renal
74 µM: ACHN renal
31 µM: RPMI-8226 leukemia
69 µM: DU-145 prostate
74.4 µM: A498 renal
95.6 µM: BT-549 breast
59 µM: MOLT-4 leukemia
77 µM: HOP-92 NSCLC
90.7 µM: IGROV1 ovarian
43 µM: SR leukemia

O=C1C(=Cc2ccco2)C(=O)C2CCCCC12 (stereo unspecified)
73.2 µM: K-562 leukemia
> 100 µM: HOP-62 NSCLC | MOLT-4 leukemia | U251 CNS | NCI-H522 lung | NCI-H460 lung | UACC-257 melanoma | PC-3 prostate | HCC-2998 colon | SNB-75 CNS | ACHN renal | OVCAR-3 ovarian | MDA-N | MALME-3M melanoma | T-47D breast | SK-OV-3 ovarian | RPMI-8226 leukemia | A498 renal | BT-549 breast | A549 NSCLC | SK-MEL-2 melanoma | SR leukemia | SW-620 colon | NCI-H226 lung | EKVX NSCLC | HCT-15 colon | MDA-MB-435 | KM12 colon | SK-MEL-28 melanoma | SN12C renal | M14 melanoma | NCI/ADR-RES ovarian | IGROV1 ovarian | 786-0 renal | NCI-H23 lung | CAKI-1 renal | TK-10 renal | LOX IMVI melanoma | HCT-116 colon | CCRF-CEM leukemia | RXF 393 renal | MDA-MB-231 breast | COLO 205 colon | MCF7 breast | HOP-92 NSCLC | SF-295 CNS | UACC-62 melanoma | SF-539 CNS | HS 578T breast | SNB-19 CNS | OVCAR-5 ovarian | SF-268 CNS | OVCAR-8 ovarian | SK-MEL-5 melanoma | OVCAR-4 ovarian | DU-145 prostate | HT29 colon

O=S(=O)(O)c1ccc2c(N=Nc3ccccc3)c(O)c(S(=O)(=O)O)cc2c1
> 100 µM: HOP-62 NSCLC | MOLT-4 leukemia | U251 CNS | NCI-H522 lung | NCI-H460 lung | UACC-257 melanoma | PC-3 prostate | HCC-2998 colon | SNB-75 CNS | ACHN renal | OVCAR-3 ovarian | MDA-N | MALME-3M melanoma | T-47D breast | SK-OV-3 ovarian | A498 renal | UO-31 renal | BT-549 breast | A549 NSCLC | SK-MEL-2 melanoma | SR leukemia | SW-620 colon | NCI-H226 lung | EKVX NSCLC | HCT-15 colon | MDA-MB-435 | KM12 colon | SK-MEL-28 melanoma | SN12C renal | M14 melanoma | NCI/ADR-RES ovarian | IGROV1 ovarian | 786-0 renal | NCI-H23 lung | CAKI-1 renal | TK-10 renal | HCT-116 colon | CCRF-CEM leukemia | RXF 393 renal | MDA-MB-231 breast | COLO 205 colon | MCF7 breast | HOP-92 NSCLC | SF-295 CNS | UACC-62 melanoma | SF-539 CNS | HS 578T breast | SNB-19 CNS | OVCAR-5 ovarian | SF-268 CNS | K-562 leukemia | OVCAR-8 ovarian | SK-MEL-5 melanoma | HL-60(TB) leukemia | OVCAR-4 ovarian | DU-145 prostate
